Data from PubChem BioAssay AID2060909 (Molecular Pharmacology Branch, DTP, NCI, 2025).
Blank lines part the entries; values can stand above or below the molecule they belong to.

System: 362531-283-R-J2-PDC complex spheroid viability
Assay: Anticancer human tumor 362531-283-R-J2-PDC patient-derived colon adenocarcinoma cell line growth inhibition [RAS]
Conditions: for IC50: curve of first compound; for viability, T/C: stronger effect = lower value
Method in brief: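 Agents were tested in combination matrices in half-log decrements from a top concentration at or near clinical Cmax (10 microM if undetermined). Targets were multi-cell spheroids of tumour lines plus HUVEC and MSC stromal cells.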

[1] = second compound 0.000949 µM, first compound 0.0316 µM
[2] = second compound 0.000949 µM, first compound 0.1 µM
[3] = second compound 0.000949 µM, first compound 0.316 µM
[4] = second compound 0.000949 µM, first compound 1 µM
[5] = second compound 0.003 µM, first compound 0.0316 µM
[6] = second compound 0.003 µM, first compound 0.1 µM
[7] = second compound 0.003 µM, first compound 0.316 µM
[8] = second compound 0.003 µM, first compound 1 µM
[9] = second compound 0.00949 µM, first compound 0.0316 µM
[10] = second compound 0.00949 µM, first compound 0.1 µM
[11] = second compound 0.00949 µM, first compound 0.316 µM
[12] = second compound 0.00949 µM, first compound 1 µM
[13] = second compound 0.03 µM, first compound 0.0316 µM
[14] = second compound 0.03 µM, first compound 0.1 µM
[15] = second compound 0.03 µM, first compound 0.316 µM
[16] = second compound 0.03 µM, first compound 1 µM
[17] = second compound 0.0949 µM, first compound 0.0316 µM
[18] = second compound 0.0949 µM, first compound 0.1 µM
[19] = second compound 0.0949 µM, first compound 0.316 µM
[20] = second compound 0.0949 µM, first compound 1 µM
[21] = second compound 0.3 µM, first compound 0.0316 µM
[22] = second compound 0.3 µM, first compound 0.1 µM
[23] = second compound 0.3 µM, first compound 0.316 µM
[24] = second compound 0.3 µM, first compound 1 µM
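Also: spheroids exposed to the agents for 7 days before readout.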
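For viability, T/C in this document: luminescence viability as percent of DMSO vehicle control wells.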

- IC50 (second compound 0.000949 µM): 1530 nM
- IC50 (second compound 0.003 µM): 1290 nM
- IC50 (second compound 0.00949 µM): 1680 nM
- IC50 (second compound 0.03 µM): 2090 nM
- IC50 (second compound 0.0949 µM): 1650 nM
- IC50 (second compound 0.3 µM): 1510 nM
SMILES: CC(Nc1ccc2c(c1)OCCn1cc(N3C(=O)OCC3C(F)F)nc1-2)C(N)=O (stereo unspecified) + CCn1c(-c2cccnc2C(C)OC)c2c3cc(ccc31)N1CCOC(CC(NC(=O)C(C(C)C)N(C)C(=O)C3(F)CCN(C(=O)C#CC(C)(C)N(C)C)CC3)C(=O)N3CCCC(N3)C(=O)OCC(C)(C)C2)C1
- viability, T/C [1]: 103%
- viability, T/C [2]: 107%
- viability, T/C [3]: 92.1%
- viability, T/C [4]: 59.6%
- viability, T/C (second compound 0.000949 µM, first compound 3.16 µM): 34.2%
- viability, T/C (second compound 0.000949 µM, first compound 10 µM): 29%
- viability, T/C [5]: 106%
- viability, T/C [6]: 95.5%
- viability, T/C [7]: 92.9%
- viability, T/C [8]: 52.4%
- viability, T/C (second compound 0.003 µM, first compound 3.16 µM): 36.8%
- viability, T/C (second compound 0.003 µM, first compound 10 µM): 24.4%
- viability, T/C [9]: 95.4%
- viability, T/C [10]: 106%
- viability, T/C [11]: 87.8%
- viability, T/C [12]: 62.4%
- viability, T/C (second compound 0.00949 µM, first compound 3.16 µM): 35.7%
- viability, T/C (second compound 0.00949 µM, first compound 10 µM): 28.4%
- viability, T/C [13]: 98.4%
- viability, T/C [14]: 96.5%
- viability, T/C [15]: 87.1%
- viability, T/C [16]: 65.3%
- viability, T/C (second compound 0.03 µM, first compound 3.16 µM): 41.7%
- viability, T/C (second compound 0.03 µM, first compound 10 µM): 24.9%
- viability, T/C [17]: 93.9%
- viability, T/C [18]: 91.4%
- viability, T/C [19]: 88.5%
- viability, T/C [20]: 60.5%
- viability, T/C (second compound 0.0949 µM, first compound 3.16 µM): 36.1%
- viability, T/C (second compound 0.0949 µM, first compound 10 µM): 24.5%
- viability, T/C [21]: 93.4%
- viability, T/C [22]: 85.5%
- viability, T/C [23]: 83%
- viability, T/C [24]: 56.9%
- viability, T/C (second compound 0.3 µM, first compound 3.16 µM): 36.6%
- viability, T/C (second compound 0.3 µM, first compound 10 µM): 28%

- IC50 (second compound 0.00316 µM): > 1000 nM
- IC50 (second compound 0.01 µM): > 1000 nM
- IC50 (second compound 0.0316 µM): > 1000 nM
- IC50 (second compound 0.1 µM): > 1000 nM
- IC50 (second compound 0.316 µM): > 1000 nM
- IC50 (second compound 1 µM): > 1000 nM
SMILES: C=CC(=O)Nc1cc(Nc2nccc(-c3cn(C)c4ccccc34)n2)c(OC)cc1N(C)CCN(C)C + C=CC(=O)N1CCN(c2nc(OCC3CCCN3C)nc3c(F)c(-c4nc(N)cc(C)c4C(F)(F)F)c(Cl)cc23)C(C)C1
- viability, T/C (second compound 0.00316 µM, first compound 0.00316 µM): 103%
- viability, T/C (second compound 0.00316 µM, first compound 0.01 µM): 97.4%
- viability, T/C (second compound 0.00316 µM, first compound 0.0316 µM): 100%
- viability, T/C (second compound 0.00316 µM, first compound 0.1 µM): 95.6%
- viability, T/C (second compound 0.00316 µM, first compound 0.316 µM): 89%
- viability, T/C (second compound 0.00316 µM, first compound 1 µM): 69.8%
- viability, T/C (second compound 0.01 µM, first compound 0.00316 µM): 107%
- viability, T/C (second compound 0.01 µM, first compound 0.01 µM): 100%
- viability, T/C (second compound 0.01 µM, first compound 0.0316 µM): 104%
- viability, T/C (second compound 0.01 µM, first compound 0.1 µM): 98.3%
- viability, T/C (second compound 0.01 µM, first compound 0.316 µM): 96.9%
- viability, T/C (second compound 0.01 µM, first compound 1 µM): 56%
- viability, T/C (second compound 0.0316 µM, first compound 0.00316 µM): 104%
- viability, T/C (second compound 0.0316 µM, first compound 0.01 µM): 99.2%
- viability, T/C (second compound 0.0316 µM, first compound 0.0316 µM): 98.3%
- viability, T/C (second compound 0.0316 µM, first compound 0.1 µM): 94.9%
- viability, T/C (second compound 0.0316 µM, first compound 0.316 µM): 93.5%
- viability, T/C (second compound 0.0316 µM, first compound 1 µM): 65.5%
- viability, T/C (second compound 0.1 µM, first compound 0.00316 µM): 103%
- viability, T/C (second compound 0.1 µM, first compound 0.01 µM): 104%
- viability, T/C (second compound 0.1 µM, first compound 0.0316 µM): 101%
- viability, T/C (second compound 0.1 µM, first compound 0.1 µM): 96.8%
- viability, T/C (second compound 0.1 µM, first compound 0.316 µM): 101%
- viability, T/C (second compound 0.1 µM, first compound 1 µM): 62.8%
- viability, T/C (second compound 0.316 µM, first compound 0.00316 µM): 93.8%
- viability, T/C (second compound 0.316 µM, first compound 0.01 µM): 96%
- viability, T/C (second compound 0.316 µM, first compound 0.0316 µM): 98.1%
- viability, T/C (second compound 0.316 µM, first compound 0.1 µM): 94.8%
- viability, T/C (second compound 0.316 µM, first compound 0.316 µM): 96.2%
- viability, T/C (second compound 0.316 µM, first compound 1 µM): 54.9%
- viability, T/C (second compound 1 µM, first compound 0.00316 µM): 105%
- viability, T/C (second compound 1 µM, first compound 0.01 µM): 95.8%
- viability, T/C (second compound 1 µM, first compound 0.0316 µM): 97.4%
- viability, T/C (second compound 1 µM, first compound 0.1 µM): 103%
- viability, T/C (second compound 1 µM, first compound 0.316 µM): 86.5%
- viability, T/C (second compound 1 µM, first compound 1 µM): 70.7%

- IC50 (second compound 0.000949 µM): 830 nM
- IC50 (second compound 0.003 µM): 714 nM
- IC50 (second compound 0.00949 µM): 471 nM
- IC50 (second compound 0.03 µM): 308 nM
- IC50 (second compound 0.0949 µM): 112 nM
- IC50 (second compound 0.3 µM): < 3.16 nM
SMILES: CCN1CCN(Cc2ccc(Nc3ncc(F)c(-c4cc(F)c5nc(C)n(C(C)C)c5c4)n3)nc2)CC1 + CCn1c(-c2cc(N3CCN(C)CC3)cnc2C(C)OC)c2c3cc(ccc31)-c1csc(n1)CC(NC(=O)C1CC1C)C(=O)N1CCCC(N1)C(=O)OCC(C)(C)C2
- viability, T/C (second compound 0.000949 µM, first compound 0.00316 µM): 95.6%
- viability, T/C (second compound 0.000949 µM, first compound 0.01 µM): 114%
- viability, T/C [1]: 99.2%
- viability, T/C [2]: 90.4%
- viability, T/C [3]: 69.9%
- viability, T/C [4]: 46.1%
- viability, T/C (second compound 0.003 µM, first compound 0.00316 µM): 106%
- viability, T/C (second compound 0.003 µM, first compound 0.01 µM): 110%
- viability, T/C [5]: 96.4%
- viability, T/C [6]: 87.8%
- viability, T/C [7]: 66.6%
- viability, T/C [8]: 43.1%
- viability, T/C (second compound 0.00949 µM, first compound 0.00316 µM): 102%
- viability, T/C (second compound 0.00949 µM, first compound 0.01 µM): 112%
- viability, T/C [9]: 105%
- viability, T/C [10]: 100%
- viability, T/C [11]: 61.4%
- viability, T/C [12]: 28.4%
- viability, T/C (second compound 0.03 µM, first compound 0.00316 µM): 102%
- viability, T/C (second compound 0.03 µM, first compound 0.01 µM): 96.8%
- viability, T/C [13]: 93.2%
- viability, T/C [14]: 73.5%
- viability, T/C [15]: 50.1%
- viability, T/C [16]: 15.2%
- viability, T/C (second compound 0.0949 µM, first compound 0.00316 µM): 86.9%
- viability, T/C (second compound 0.0949 µM, first compound 0.01 µM): 81%
- viability, T/C [17]: 81.7%
- viability, T/C [18]: 54.2%
- viability, T/C [19]: 10.9%
- viability, T/C [20]: 13.2%
- viability, T/C (second compound 0.3 µM, first compound 0.00316 µM): 48.4%
- viability, T/C (second compound 0.3 µM, first compound 0.01 µM): 46.8%
- viability, T/C [21]: 40%
- viability, T/C [22]: 13.3%
- viability, T/C [23]: 6.94%
- viability, T/C [24]: 11.1%
